By IC50 is commonly meant the midpoint of a concentration-inhibition curve. By viability, T/C is commonly meant the result in the treated group divided by that in the control group, in per cent.

In this assay the test system is 233499-124-R-J3-PDC complex spheroid growth. Description: Anticancer human tumor 233499-124-R-J3-PDC patient-derived colon adenocarcinoma cell line growth inhibition [AhR]. Conditions: for viability, T/C: stronger effect = lower value. The essentials:
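Spheroids combined tumor cells with HUVEC endothelial cells and human MSCs as stroma. AhR antagonists were paired with standard or investigational drugs, each dosed in half-log steps down from near clinical Cmax, or from 10 microM where Cmax was unknown.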

Bounds are passed on as bounds.
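Further: spheroids exposed to agents for seven days before reading.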

With `CCc1c2c(nc3ccc(O)cc13)-c1cc3c(c(=O)n1C2)COC(=O)[C@]3(O)CC` + CC(CO)NC(=O)c1cc(-c2ccc(Cl)cc2)nn(-c2cnn(C)c2)c1=O, the IC50 by setting is: (curve of first compound, second compound 0.1 µM) 300 nM; (curve of first compound, second compound 0.316 µM) more than 300 nM; (curve of first compound, second compound 1 µM) more than 300 nM; (curve of first compound, second compound 3.16 µM) more than 300 nM; (curve of first compound, second compound 10 µM) more than 300 nM. For the same molecule, the viability, T/C reads like this: (second compound 0.1 µM, first compound 0.000949 µM) 87.3%; (second compound 0.1 µM, first compound 0.003 µM) 98.9%; (second compound 0.1 µM, first compound 0.00949 µM) 73.4%; (second compound 0.1 µM, first compound 0.03 µM) 50.5%; (second compound 0.1 µM, first compound 0.0949 µM) 60.6%; (second compound 0.1 µM, first compound 0.3 µM) 55.1%. The viability, T/C was 108% (second compound 0.316 µM, first compound 0.000949 µM); 105% (second compound 0.316 µM, first compound 0.003 µM); 76.4% (second compound 0.316 µM, first compound 0.00949 µM); 56.2% (second compound 0.316 µM, first compound 0.03 µM); 57.9% (second compound 0.316 µM, first compound 0.0949 µM); 66.4% (second compound 0.316 µM, first compound 0.3 µM). Besides, the viability, T/C (second compound 1 µM, first compound 0.000949 µM) is 103%; the viability, T/C (second compound 1 µM, first compound 0.003 µM) was 94.4%; the viability, T/C (second compound 1 µM, first compound 0.00949 µM) was 80.5%; the viability, T/C (second compound 1 µM, first compound 0.03 µM) was 64.7%; the viability, T/C (second compound 1 µM, first compound 0.0949 µM) is 57.9%; the viability, T/C (second compound 1 µM, first compound 0.3 µM) was 62.5%. Further, the viability, T/C reads like this: (second compound 3.16 µM, first compound 0.000949 µM) 92.8%; (second compound 3.16 µM, first compound 0.003 µM) 88.2%; (second compound 3.16 µM, first compound 0.00949 µM) 71.6%; (second compound 3.16 µM, first compound 0.03 µM) 58%; (second compound 3.16 µM, first compound 0.0949 µM) 72.8%; (second compound 3.16 µM, first compound 0.3 µM) 48.6%. For the same molecule, the viability, T/C was 93.8% (second compound 10 µM, first compound 0.000949 µM); 70.4% (second compound 10 µM, first compound 0.003 µM); 77.9% (second compound 10 µM, first compound 0.00949 µM); 75.4% (second compound 10 µM, first compound 0.03 µM); 49.1% (second compound 10 µM, first compound 0.0949 µM); 59.7% (second compound 10 µM, first compound 0.3 µM).

Take `CC(CO)NC(=O)c1cc(-c2ccc(Cl)cc2)nn(-c2cnn(C)c2)c1=O` (stereo not drawn): the viability, T/C was 94.2% [middle of 21 runs] (compound 0.316 µM) and 91.3% [middle of 19 runs] (compound 3.16 µM). For the same molecule, the IC50 (compound alone, run of 07/12/2022) was more than 10000 nM.

These data come from PubChem BioAssay AID1918993 (Molecular Pharmacology Branch, DTP, NCI, 2023).
